Measured values as given in publication PMC9000482, “Inhibition of Aldose Reductase by Ginsenoside Derivatives via a Specific Structure Activity Relationship with Kinetics Mechanism and Molecular Docking Study” (Molecules, 2022).
Read-outs that look alike come from different tables or passages of the source. Marks after values point to notes of the source that are not given here.

How the values were obtained:
[1] = biological target: T1, human recombinant aldose reductase (HRAR) (Homo sapiens, UniProt P15121); assay: HRAR inhibition assay (DL-glyceraldehyde substrate); format: biochemical
T1 construct: purchased Wako Chemicals (Osaka, Japan)
Experimental: HRAR inhibition was studied according to Nishimura et al.. AR action was studied by measuring the reduction in NADPH absorption at 340 nm over a period of 1 min on a UV/visible spectrophotometer (Ultrospec®2100pro, Biochrom, Holliston, MA, USA). For HRAR inhibition, the HRAR enzyme (0.4 units), was used in all enzyme inhibition evaluations. […] The inhibition percentage (%) was measured as designated in the RLAR assay. The DA sample/min value characterizes the decrease in absorbance for 1 min with the test samples and substrate. The ability of each sample to inhibit HRAR was observed as an IC50 value (µM) and measured from the log-dose inhibition curve.

[2] = test system: sorbitol accumulation in rat lens; assay: Lens culture and intracellular sorbitol measurement (ex vivo); format: cell-based, Sprague-Dawley rats; details: 25 mM glucose, 6 days, sample 5 μg/mL, mean ± SD (n = 3); for inhibition at 5 µg/mL: 144 h
[3] = biological target: T1, human recombinant aldose reductase (HRAR); assay: Enzyme kinetics of HRAR inhibition (Lineweaver-Burk and Dixon plots); format: biochemical; details: for HRAR Mode of Inhibition: Lineweaver-Burk plot
Experimental: (§1) Enzyme inhibition with different concentrations ([…]) was assessed by monitoring the effects of different concentrations of the substrate. The following concentrations of test ginsenosides were used in the RLAR kinetics analysis: 0, 2, 10, and 50 µM for protopanaxadiol; 0, 0.5, 2.5, and 10 µM for (20S) ginsenoside Rg3; 0, 0.5, 2.5, and 10 µM for (20R) ginsenoside Rg3; 0, 0.1, 0.5, and 2.5 µM for ginsenoside Rh2; 0, 2, 10, and 50 µM for protopanaxatriol; 0, 0.8, 4, and 20 µM for ginsenoside Rf; 0, 0.8, 4, and 20 µM for (20S) ginsenoside Rg2, and 0, 0.5, 2.5, and 10 µM for ginsenoside Rh1. Using Lineweaver-Burk double reciprocal plots, the inhibition type was determined using various concentrations of DL-glyceraldehyde (5, 10, and 20 mM) for HRAR as a substrate in the presence of different concentrations of the active test ginsenosides. The concentrations of test ginsenosides in the HRAR kinetics analysis were as follows: 0, 0.1, 0.5, and 2.5 µM for protopanaxadiol; 0, 0.5, 2, and 10 µM for (20S) ginsenoside Rg3; 0, 1, 5, and 20 µM for (20R) ginsenoside Rg3; 0, 0.5, 2.5, and 10 µM for ginsenoside Rh2; 0, 0.1, 0.5, and 2.5 µM for compound K; 0, 1, 5, and 10 µM for protopanaxatriol; 0, 0.5, 4, and 20 µM for (20R) ginsenoside Rg2, and 0, 0.2, 2, and 5 µM for ginsenoside Rh1. The Dixon plot is a graphical method [1/enzyme velocity (1/V)] against inhibitor concentration [I] used to determine the type of enzyme inhibition; it was used to identify the dissociation or inhibition constant (Ki) for the enzyme-inhibitor complex. Dixon plots (single reciprocal plots) for RLAR and HRAR inhibition were obtained in the presence of 100, 50, and 10 mM RLAR, and 20, 10, and 5 mM HRAR DL-glyceraldehyde substrate. Thus, the type of enzyme inhibition was determined by interpreting the Lineweaver-Burk plots, and the inhibition constants (Ki) were determined by interpreting the Dixon plots.

[4] = biological target: T2, rat lens aldose reductase (RLAR) (Rattus norvegicus, UniProt P07943); assay: Enzyme kinetics of RLAR inhibition (Lineweaver-Burk and Dixon plots); format: biochemical; details: for RLAR Mode of Inhibition: Lineweaver-Burk plot
T2 construct: from tissue; host or cells: lens of Sprague-Dawley rats (supernatant of homogenate)
Experimental: as §1

[5] = biological target: T2, rat lens aldose reductase (RLAR); assay: RLAR inhibitory activity assay (rat lens homogenate, DL-glyceraldehyde substrate); format: biochemical
Experimental: A rat lens homogenate was prepared with minor modifications according to the method reported by Hayman et al.. Briefly, the lenses were removed from the eyes of Sprague-Dawley rats weighing 250–280 g. They were homogenized in sodium phosphate buffer (pH 6.2) that was prepared with dibasic sodium phosphate (Na2HPO4∙H2O, 0.66 g) and monobasic sodium phosphate (NaH2PO4∙H2O, 1.27 g) in 100 mL of double-distilled H2O. The homogenate was clarified by centrifugation at 10,000 rpm at 4 °C for 20 min and the resultant supernatant was frozen until use. A crude AR homogenate with a specific activity of 6.5 U/mg was used in all enzyme inhibition evaluations. The reaction solution consisted of 620 µL of 100 mM sodium phosphate buffer (pH 6.2), 90 µL of AR homogenate, 90 µL of 1.6 mM NADPH, and 9 µL of sample, while the substrate included 90 µL of 50 mM DL-glyceraldehyde. […] AR activity was determined by measuring the decrease in NADPH absorption at 340 nm over a 4 min period on an Ultrospec®2100pro UV/Visible spectrophotometer. SWIFT II Applications software (Amersham Biosciences, NJ, USA) was used for all data analyses. The inhibition percentage (%) was calculated as follows in Equation (1):[1 − (∆Asample/min − ∆Ablank/min)/(∆Acontrol/min − ∆Ablank/min)] × 100(1) in which ∆Asample/min represents the test sample and substrate’s reduction in absorbance over 4 min, and ∆A control/min represents the same reduction in absorbance, but with 100% DMSO (dimethyl sulfoxide) rather than the test sample.

[6] = substrate DL-glyceraldehyde, mean ± S.E.M. of triplicate experiments, read-out: HRAR IC50
[7] = Dixon plots, read-out: RLAR Kic (binding constant of inhibitor with free enzyme)
[8] = rat lens homogenate, substrate DL-glyceraldehyde, mean ± S.E.M. of triplicate experiments, read-out: RLAR IC50
[9] = Dixon plots, single inhibition constant, read-out: HRAR Ki

| SMILES | IC50 [1] | Sorbitol Content (mg)/Lens Wet Weight (g) [2] | Ki [3] | HRAR Kiu (binding constant of inhibitor with enzyme-substrate complex) ([3]; Dixon plots) | HRAR Mode of Inhibition [3] | Ki [4] | RLAR Mode of Inhibition [4] | IC50 [5] | IC50 [1, 6] | inhibition at 5 µg/mL ([2]; Rattus norvegicus) | IC50 [5, 8] | Ki [3, 9] | other results |
| --- | --- | --- | --- | --- | --- | --- | --- | --- | --- | --- | --- | --- | --- |
| CC(C)=CCC[C@](C)(O)[C@H]1CC[C@]2(C)[C@@H]1[C@H](O)C[C@@H]1[C@@]3(C)CC[C@H](O)C(C)(C)[C@@H]3[C@@H](O[C@@H]3O[C@H](CO)[C@@H](O)[C@H](O)[C@H]3O)C[C@]12C [Ginsenoside Rh1] | 4.66 ± 0.34 µM | 0.10 ± 0.01 ^a mg/g | 3.4 µM | 8.31 µM | Mixed type | 5.39 µM | Competitive type | 7.28 ± 0.27 µM |  |  |  |  | inhibition at 5 µg/mL [2]: 94.2 ± 4.71%; RLAR Mode of Inhibition ([4]; listed as Rh1): competitive |
| CC(C)=CCCC(C)(O)C1CCC2(C)C1C(O)CC1C3(C)CCC(O)C(C)(C)C3C(OC3OC(CO)C(O)C(O)C3OC3OC(C)C(O)C(O)C3O)CC12C [(20S) ginsenoside Rg2] |  | 0.73 ± 0.01 ^c mg/g |  |  |  |  | Mixed type |  | 15.7 ± 1.05 µM | 57.5 ± 5.11% | 14.4 ± 0.99 µM |  | RLAR Kiu (binding constant of inhibitor with enzyme-substrate complex) ([4]; Dixon plots): 17.04 µM; Ki [4, 7]: 10.8 µM |
| CC(C)=CCC[C@](C)(O[C@@H]1O[C@H](CO)[C@@H](O)[C@H](O)[C@H]1O)C1CC[C@]2(C)[C@@H]1[C@H](O)CC1[C@@]3(C)CC[C@H](O)C(C)(C)C3CC[C@]12C (stereo partly shown) [Compound K] |  | 0.46 ± 0.01 ^b mg/g |  |  | Competitive type |  |  |  | 2.23 ± 0.54 µM | 73.2 ± 8.11% | 41.5 ± 3.99 µM | 1.59 µM | HRAR Mode of Inhibition ([3]; listed as compound K): competitive |
| CC(C)=CCC[C@](C)(O)C1CC[C@]2(C)[C@@H]1[C@H](O)CC1[C@@]3(C)CC[C@H](O[C@@H]4O[C@H](CO)[C@@H](O)[C@H](O)[C@H]4O[C@@H]4O[C@H](CO)[C@@H](O)[C@H](O)[C@H]4O)C(C)(C)C3CC[C@]12C (stereo partly drawn) [(20S) ginsenoside Rg3] | 9.92 ± 0.56 µM | 0.37 ± 0.01 ^b mg/g | 8.06 µM |  | Competitive type | 1.97 µM | Competitive type | 1.25 ± 0.28 µM |  | 78.5 ± 4.27% |  |  | RLAR Mode of Inhibition ([4]; listed as (20S) Rg3): competitive |
| CC(C)=CCC[C@](C)(O)[C@H]1CC[C@]2(C)[C@@H]1[C@H](O)C[C@@H]1[C@@]3(C)CC[C@H](O[C@@H]4O[C@H](CO)[C@@H](O)[C@H](O)[C@H]4O)C(C)(C)[C@@H]3CC[C@]12C [Ginsenoside Rh2] | 7.44 ± 0.55 µM | 0.05 ± 0.01 ^a mg/g | 3.63 µM | 9.22 µM | Mixed type | 0.43 µM | Competitive type | 0.67 ± 0.01 µM |  |  |  |  | inhibition at 5 µg/mL [2]: 97.1 ± 5.41%; RLAR Mode of Inhibition ([4]; listed as Rh2): competitive |
| CC(C)=CCCC(C)(O)C1CCC2(C)C1C(O)CC1C3(C)CCC(O)C(C)(C)C3C(OC3OC(CO)C(O)C(O)C3OC3OC(C)C(O)C(O)C3O)CC12C [(20R) ginsenoside Rg2] |  | 0.83 ± 0.01 ^c mg/g |  |  | Non-competitive |  |  |  | 13.7 ± 0.99 µM |  | 29.4 ± 2.33 µM | 11.7 µM | Inhibition (%) of sorbitol accumulation in rat lens [2]: 51.74 ± 2.99 ^c % |
| CC(C)=CCC[C@](C)(O)[C@H]1CC[C@]2(C)[C@@H]1[C@H](O)C[C@@H]1[C@@]3(C)CC[C@H](O)C(C)(C)[C@@H]3[C@@H](O)C[C@]12C [Protopanaxatriol] |  | 0.09 ± 0.01 ^a mg/g |  |  | Competitive type |  | Non-competitive type |  | 1.43 ± 0.14 µM | 94.8 ± 3.46% | 27.9 ± 1.19 µM | 2.61 µM | HRAR Mode of Inhibition ([3]; listed as protopanaxatriol): competitive; Ki ([4]; Dixon plots, single inhibition constant, read-out: RLAR Ki): 28.9 µM; RLAR Mode of Inhibition ([4]; listed as protopanaxatriol): non-competitive |
| CC(C)=CCC[C@](C)(O)C1CC[C@]2(C)[C@@H]1[C@H](O)CC1[C@@]3(C)CC[C@H](O)C(C)(C)C3CC[C@]12C (stereo partly shown) [Protopanaxadiol] |  | 0.06 ± 0.01 ^a mg/g |  |  | Competitive type |  | Mixed type |  | 0.36 ± 0.1 µM | 96.5 ± 2.91% | 21.4 ± 2.45 µM | 0.72 µM | HRAR Mode of Inhibition ([3]; listed as protopanaxadiol): competitive; RLAR Kiu (binding constant of inhibitor with enzyme-substrate complex) ([4]; Dixon plots): 37.39 µM; Ki [4, 7]: 18.8 µM |
| CC(C)=CCCC(C)(O)C1CCC2(C)C1C(O)CC1C3(C)CCC(OC4OC(CO)C(O)C(O)C4OC4OC(CO)C(O)C(O)C4O)C(C)(C)C3CCC12C [(20R) ginsenoside Rg3] |  | 0.89 ± 0.01 ^c mg/g |  | 17.99 µM | Mixed type |  | Competitive type |  |  | 48.2 ± 3.99% |  |  | IC50 ([1]; read-out: HRAR IC50, substrate DL-glyceraldehyde, mean ± S.E.M. of triplicate experiments): 8.67 ± 0.87 µM; Ki ([3]; read-out: HRAR Kic (binding constant of inhibitor with free enzyme), Dixon plots): 11.1 µM; RLAR Mode of Inhibition ([4]; listed as (20R) Rg3): competitive; Ki ([4]; read-out: RLAR Ki, Dixon plots, single inhibition constant): 3.69 µM; IC50 ([5]; read-out: RLAR IC50, rat lens homogenate, substrate DL-glyceraldehyde, mean ± S.E.M. of triplicate experiments): 4.28 ± 0.31 µM |
